Consider one compound from US10617667B2, “Method for treating brain tumors” (ONO PHARMACEUTICAL CO., LTD., priority 2017, dated 2020).

Assay [1] concerns mouse glioma cell line GL261 orthotopic-graft. Kind of assay: Survival in mouse glioma cell line GL261 orthotopic-graft model. The class given is in vivo, immunocompetent syngeneic C57BL/6 mice. Conditions: Compound A 3 mg/kg oral twice a day. Here is the method: Effects of Combination of Compound A and an Anti-Mouse PD-1 Antibody in Mouse Glioma Cell Line GL261 Orthotopic-Graft Models Using Immunocompetent Syngeneic C57BL/6 Mice
The effect of a combination of Compound A and an anti-mouse PD-1 antibody (4H2, see WO2006/121168) was evaluated in mouse glioma cell line GL261 orthotopic-graft models using immunocompetent syngeneic C57BL/6 mice. GL261 was cultured in a CO2 incubator using an RPMI medium (Mediatech, Inc.) containing 10 vol % of FBS, 100 units/mL of penicillin, and 100 μg/mL of streptomycin. On the day of transplant, GL261 was harvested after removing the culture supernatant, and washing the cells with PBS. The harvested GL261 cells were suspended in PBS to obtain transplant cells. The transplant cells (5×10^4) were then transplanted to the brain of female C57BL/6J mice (The Jackson Laboratory) under anesthesia.
After 5 days from transplant, the mice were divided into 4 groups: a vehicle group, a Compound A single group, an anti-mouse PD-1 antibody single group, and a combination group (Compound A and the anti-mouse PD-1 antibody). Each group included 10 mice. […] The general condition of the mice was observed once a day from the day following the day of transplant of GL261, and scored according to the following table. Thus, the survival rate of the mice was evaluated.

The target in assay [2] is T1, EP4 receptor (Homo sapiens, UniProt P35408). Conditions: as taught by Patent Document 1 (WO2016/111347); cited from earlier work.
Assay [3] has as its target T1, EP4 receptor. Conditions: as taught by Patent Document 1 (WO2016/111347); cited from earlier work. This is another data set of the same source.

T1 sequence (P35408 whole entry): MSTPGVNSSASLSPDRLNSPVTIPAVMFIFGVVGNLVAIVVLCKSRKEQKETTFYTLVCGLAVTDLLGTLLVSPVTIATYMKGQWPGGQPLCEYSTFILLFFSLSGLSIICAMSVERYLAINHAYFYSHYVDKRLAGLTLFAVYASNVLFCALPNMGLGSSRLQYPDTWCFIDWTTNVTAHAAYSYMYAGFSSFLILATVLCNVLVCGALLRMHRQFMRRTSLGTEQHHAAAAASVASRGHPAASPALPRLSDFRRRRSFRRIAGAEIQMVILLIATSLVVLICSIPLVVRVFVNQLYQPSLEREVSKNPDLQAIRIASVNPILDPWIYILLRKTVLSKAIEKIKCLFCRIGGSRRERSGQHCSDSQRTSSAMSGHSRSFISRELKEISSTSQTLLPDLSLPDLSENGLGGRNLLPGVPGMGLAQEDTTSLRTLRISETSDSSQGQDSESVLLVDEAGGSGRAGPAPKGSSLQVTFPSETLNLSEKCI

Regarding `CC(C)NC(=O)c1ccc2c(c1)[C@]1(CCO2)C[C@H]1C(=O)Nc1cc(C#N)ccc1CCCC(=O)O` [Compound A, 4-[4-cyano-2-({[(2′R,4S)-6-(isopropylcarbamoyl)-2,3-dihydrospiro[chromene-4,1′-cyclopropan]-2′-yl]carbonyl}amino)phenyl]butanoic acid], the “survival time compared with vehicle administration group” value in assay [1] (GL261 orthotopic graft) is “longer than that of the vehicle administration group”. Moreover, the “day after which all the mice had died” value in assay [1] (GL261 transplanted to brain of female C57BL/6J mice, days 5-70 from transplant, 10 mice per group) is 42 days. The “binding to EP4 receptor” value at EP4 receptor [2] was “strongly binds”. On EP4 receptor [3], the “activity at EP4 receptor” value is on record as “antagonistic activity”.
